From US7329494B2, “Method of detection and quantification of cGMP by using a cGMP-visualizing probe” (Japan Science and Technology Corporation, priority 2000, dated 2008)

Test system: intracellular cGMP in CGY-Del1-expressing HEK293 cells
Experiment: Intracellular cGMP detected by emission ratio in CGY-expressing HEK293 cells stimulated with NOC-7
Type: cell-based, Human
Method: Human embryonic kidney cells (HEK293) were cultured in Dulbecco's modified eagle medium supplemented with 10% FCS, 1 mM sodium pyruvate, and 0.1 mM nonessential amino acids at 37° C. in 5% CO2, to give HEK293 cells.
The resulting HEK293 cells were transfected by the same method as in Example 2 with CGY-Del1, CGY-Del2, CGY-Del3 and CGY-Del4 expression vectors, to give HEK293 cells expressing each type of CGY.
The cGMP-visualizing probes were used to detect intracellular cGMP generated upon stimulation of the living cells with nitrogen monoxide (NO).
First, to activate the soluble guanylyl cyclase in the HEK293 cells having CGY-Del1 introduced therein obtained in Example 6, NOC-7, a compound for releasing NO spontaneously in a rate-controlled manner, was added to give its final extracellular concentration of 500 μM.
Accordingly, 1 mM 8-Br-cGMP, a phosphodiesterase-resistant analogue of cGMP, was added to the system described above.

Compound: CCCOc1ccccc1-c1nc2nn[nH]c2c(=O)[nH]1 [zaprinast]
- NOC-7-induced emission ratio change in cells treated with zaprinast (100 μM zaprinast, 500 μM NOC-7): later slower increase in the emission ratio was not observed

Compound: Nc1nc2c(nc(Br)n2[C@@H]2O[C@@H]3COP(=O)(O)O[C@H]3[C@H]2O)c(=O)[nH]1 [8-Br-cGMP]
- emission ratio on addition after NOC-7-induced decrease and recovery (added 900 seconds after 500 μM NOC-7, 1 mM 8-Br-cGMP): decreased again

Compound: O=c1onc2cnc3ccccc3n12 [ODQ]
- NOC-7-induced emission ratio change in cells pre-treated with ODQ (10 μM ODQ, 500 μM NOC-7): change in the emission ratio elicited by NOC-7 was not observed

Compound: CNCCCN(C)/[N+]([O-])=N/O [NOC-7]
- emission ratio upon addition of NOC-7 (500 μM NOC-7): rapidly decreased
